Results taken from PMC4873483 (Experimental Animals, 2015).
Read-outs that look alike come from different tables or passages of the source.

Columns and labels:
[1] = repeated oral administration at a saturating dose, rats and dogs; cited from earlier work
[2] = given by mouth over a time frame of up to 4 weeks; cited from earlier work
[3] = Pharmacokinetic study following a single s.c. administration of 1-MT; assay type: in vivo, domestic pigs (Sus scrofa domestica); conditions: for Cmax: means ± standard deviation
[4] = mice, within 48 h post dose; cited from earlier work
[5] = assay type: in vivo, domestic pigs (Sus scrofa domestica)
[6] = tested on: plasma proteins; conditions: cited from earlier work
[7] = Pharmacokinetic study following repeated s.c. administration of 1-MT; assay type: in vivo, domestic pigs (Sus scrofa domestica)
[8] = German Landrace, pig, plasma, sc, 1 g
[9] = one-compartment model fitted by numerical simulation to single-dose plasma data
[10] = single s.c. administration of 1 g 1-MT, n=3
[11] = 12 h after the final of five daily s.c. injections, n=6
[12] = endogenous TRP, all four animals
[13] = endogenous TRP, 12 h after the final s.c. injection of 1-MT

## Cn1cc(C[C@H](N)C(=O)O)c2ccccc21 [1-MT, 1-methyl-L-tryptophan]
[1]
  tolerability: well tolerated, with no toxic effects
[2]
  maximum tolerated dose: 1.6 g/day
[3]; [8]
  AUC(0-t): 960 ± 346 µM·h
  Tmax: 12 h
  concentration at 24 h: 21.1 ± 5.3 µM
[3]; German Landrace, pig, plasma, sc, 1 g, Cmax, maximum concentration in pigs plasma, single s.c. administration of 1 g 1-MT, n=3
  Cmax: 29.1 ± 8 µM
[3]; German Landrace, pig, plasma, sc, 1 g, T1/2, half-life, single s.c. administration of 1 g 1-MT, n=3
  half-life: 10.9 ± 2 h
[3]; [9]
  kabsorption: 0.08 min⁻¹
  kelimination: 0.001 min⁻¹
  krelease: 0.0018 min⁻¹
[3]; read-out: Cmax, maximum concentration in pigs plasma, single s.c. administration of 1 g 1-MT, n=3
  Cmax: 29.1 ± 7.97 µM
[3]; [10]
  T1/2, half-life: 10.93 ± 2.03 h
  k, first-order kinetic rate constant: 0.065 ± 0.011 h⁻¹
[4]
  excreted via feces: 13%
  excreted via urine: 35%
[5]; five daily s.c. administrations of 1 g 1-MT, not different from MYR (P = 0.97)
  daily feed uptake: 0.66 ± 0.02 kg
[5]; five-day period of 1-MT administration
  fever response: no fever response
[5]; single s.c. 1 g 1-MT, visual inspection twice daily
  health status after a single s.c. injection: No impairment of the health status could be observed
[6]
  bound to plasma proteins: less than 15%
[7]; 1 g 1-MT s.c. daily for five days
  steady state of plasma trough concentrations: steady state conditions of trough values were reached after two subcutaneous administrations
[7]; 12 h after the final of five daily s.c. injections
  1-MT concentrations in peripheral tissues: 48–152 nmol/g wet tissue weight
[7]; [11]
  1-MT concentration in kidney and liver: greater than 100 nmol/g wet tissue weight
  1-MT concentration in the different brain areas: lower than 20 nmol/g wet tissue weight
[7]; [8]
  concentration at 12 h: 38 µM
[7]; estimated from plasma 1-MT and organ blood volumes (32-408 µl/g)
  share of 1-MT accumulated in organs derived from contamination with blood: less than 5%

## N[C@@H](Cc1c[nH]c2ccccc12)C(=O)O [TRP, tryptophan]
[3]; [12]
  maximum TRP concentration in plasma over the 7-day period: 37.7 µM
  minimum TRP concentration in plasma over the 7-day period: 13.1 µM
[3]; endogenous TRP, all four animals, after single s.c. 1-MT or MYR
  average TRP concentration in plasma over the entire 7-day period: 22.8 ± 5.1 µM
[7]; [13]
  TRP concentration in kidney, liver, adrenal gland, spleen, and thyroid gland: greater than 40 nmol/g wet tissue weight
  TRP concentration in the other tissues: lower than 30 nmol/g wet tissue
